Laboratory results reported in PMC7156724, “Potent BRD4 inhibitor suppresses cancer cell-macrophage interaction” (Nature Communications, 2020).
Values joined by “and” are separate entries in the source; they are usually repeats but may differ in a detail not shown here. Identical values can stand only once.

Assays:
B16F10 mouse melanoma = B16F10 mouse melanoma syngeneic model tumor growth; assay type: in vivo, C57BL/6 mice; design: Tumor volume: unit not given here; details: Fig.3d, individual animals
Source text: (§1) PO, oral administration; QD, once daily; BID, twice daily. b–d Tumor growth curves for A2780 ovarian tumor (n = 5) (b), TMD8 large B cell lymphoma (n = 6) (c), and B16F10 melanoma (n = 5) (d) bearing mice treated with the indicated compounds once daily for 11-21 days. e, f Tumor growth curves for A375 melanoma (n = 6) (e), and patient-derived xenograft (PDX) of melanoma (n = 5) (f) bearing mice treated with the indicated compounds once daily (5 days on, 2 days off) for 21 days. For d–f, NHWD-870 used is NHWD-870-HCl synthesized using Suzuki coupling route. Data are presented as mean ± SEM in (a, b, d, f) and mean + SEM in (c, e). p values were calculated using two-tailed, unpaired t tests. *p < 0.05; **p < 0.01; ***p < 0.001. Source data are provided as a Source Data file.
(§2) 4–6 weeks old female BALB/c nude mice were used for most experiments, with the exception of 6–8 weeks old female C57BL/6 mice were used for B16F10 experiments, and 6–8 weeks old male BALB/c nude mice and SD rats were used for pharmacokinetic experiments. All animals were purchased from Shanghai SIPPR-Bk Lab Animal Co., Ltd. All animals were housed under a regimen of 12 h light/12 h dark cycles and specific pathogen-free conditions. 5×10^6 NCI-H526, ES-2, MDA-MB231, A2780, A375, B16F10, and TMD-8 cells (0.1 ml) were injected subcutaneously into female nude mice. The melanoma patient-derived xenograft model was derived from a human melanoma sample (BRAF, NARS and NF1 wild type, and p53 mutant) removed from a patient in Xiangya Hospital. Surgically removed tumor fragments were implanted subcutaneously into female NSG mice. When the tumors grew to ~1000 mm^3, they were harvested and cryopreserved or immediately re-implanted for expansion or experiments. Mouse body weight and tumor sizes were measured every 3 days. Once the tumors grew to 150–200 mm^3, mice were treated with the compounds as described in the Figures. 1 × 10^6 A2780 cells (1 ml) were injected into the abdominal cavity of nude mice. Ascitic volume and tumor weight were measured by an electronic balance. All the procedures were evaluated and approved by the Institutional Animal Care and Use Committee of Central South University and Yale University.

[1] = Metabolic stability assay, mouse liver microsomes; details: in % (unit assumed)
Protocol: (§3) 7. Metabolic stability assay. The metabolic profile of NHWD-870 was determined using mouse, rat, dog, monkey, and human liver microsomes using the protocols […]
(§4) No. Compound ID Exat Mass Stock Conc.
(§5) 1) 100 mM potassium phosphate buffer, PH7.4; 2) 10mM MgCI2
(§6) 1) Intermediate solution: Dilute 5 μL of compound or control from stock solution (10 mM) with 45 uL DMSO,then mixed with 450 μL 1:1 Methanol/Water (Conc.: 10 0 […]
(§7) 2) Working solution: Dilute 50 μL from intermediate solution with 450 μL 100 mM potassium phosphate buffer (Conc.: 10 μM, 4.5%MeOH)
(§8) (3) NADPH regenerating system (final Isocitric dehydrogenase conc.= 1 unit/mL at […]
(§9) 1) β-Nicotinamide adenine dinucleotide phosphate, Vendor: sigma Cat. No. N0505
(§10) 2) Isocitric acid, Vendor: Sigma Cat. No. I1252
(§11) 3) Isocitric dehydrogenase, Vendor: sigma Cat. No. I2002
(§12) (4) Liver microsome solution preparation (final concentration o f 0.5 mg protein/mL) […]
(§13) Cold ACN including 100 ng/mL Tolbutamide and 100 ng/mL Labetalol as internal […]
(§14) 1) Add 10 μL compound or control working solution/well to all plates (T0, T5, T10, T20, T30, T60, NCF60) except matrix blank.
(§15) 2) Dispense 680 μL/well microsome solution to 96-well plate as reserv oir according to […]
(§16) plate map. Then add 80 μL/well to every plate by Apricot, incubate the mixture of microsome solution and compound at 37℃ for about 10 min.
(§17) 3) Add 10 μL 100 mM potassium phosphate buffer/well to NCF60, incubate at 37℃, […]
(§18) 4) After pre-warming, dispense 90 μL/well NADPH regenerating system to 96-well plate as reservoir according to the plate map. Then add 10 μL/well to every plate by Apricot to start reaction.
(§19) 5) Incubate at 37℃, start timer 2.
(§20) 6) Add 300 (μL/well) stop solution (cold in 4℃, including 100 ng/mL Tolbutamide and 100 ng/mL Labetalol) to terminate the reaction.
(§21) 7) The sampling plates are shaked for approx 10 min.
(§22) 8) Samples are centrifuged at 4000 rpm for 20 min under 4℃.
(§23) 9) While centrifuging, load 8×new 96-well plate with 300 μL HPLC water, then transfer 100 μL supernatant, mixed for LC/MS/MS.
(§24) Use equation of first order kinetics to calculate t1/2 and Clin t(mic): […]
(§25) Equation of first order kinetics: […]

[2] = Metabolic stability assay, rat liver microsomes; details: in % (unit assumed)
Protocol: as §3, §4, §5, §6, §7, §8, §9, §10, §11, §12, §13, §14, §15, §16, §17, §18, §19, §20, §21, §22, §23, §24, §25

[3] = Metabolic stability assay, dog liver microsomes; details: in % (unit assumed)
Protocol: as §3, §4, §5, §6, §7, §8, §9, §10, §11, §12, §13, §14, §15, §16, §17, §18, §19, §20, §21, §22, §23, §24, §25

[4] = Metabolic stability assay, monkey liver microsomes; details: in % (unit assumed)
Protocol: as §3, §4, §5, §6, §7, §8, §9, §10, §11, §12, §13, §14, §15, §16, §17, §18, §19, §20, §21, §22, §23, §24, §25

[5] = Metabolic stability assay, human liver microsomes; details: in % (unit assumed)
Protocol: as §3, §4, §5, §6, §7, §8, §9, §10, §11, §12, §13, §14, §15, §16, §17, §18, §19, §20, §21, §22, §23, §24, §25

[6] = system: TMD8 large B cell lymphoma; assay: TMD8 large B cell lymphoma model tumor growth; assay type: in vivo, mouse; details: Fig.3c TMD-8, 25mg/kg p.o. QD x 21D, n=6, individual animals
Source text: as §1, §2

SMILES	Remaining in rat liver microsomes (Sup Fig.6b) ([2]; time 0)	Remaining in rat liver microsomes (Sup Fig.6b) ([2]; time 5)	Remaining in rat liver microsomes (Sup Fig.6b) ([2]; time 10)	Remaining in rat liver microsomes (Sup Fig.6b) ([2]; time 20)	Remaining in rat liver microsomes (Sup Fig.6b) ([2]; time 30)	Remaining in rat liver microsomes (Sup Fig.6b) ([2]; time 60)	Remaining in Dog liver microsomes (Sup Fig.6c) ([3]; time 0)	Remaining in Dog liver microsomes (Sup Fig.6c) ([3]; time 5)	Remaining in Dog liver microsomes (Sup Fig.6c) ([3]; time 10)	Remaining in Dog liver microsomes (Sup Fig.6c) ([3]; time 20)	Remaining in Dog liver microsomes (Sup Fig.6c) ([3]; time 30)	Remaining in Dog liver microsomes (Sup Fig.6c) ([3]; time 60)	Remaining in Monkey liver microsomes (Sup Fig.6d) ([4]; time 0)	Remaining in Monkey liver microsomes (Sup Fig.6d) ([4]; time 5)	Remaining in Monkey liver microsomes (Sup Fig.6d) ([4]; time 10)	Remaining in Monkey liver microsomes (Sup Fig.6d) ([4]; time 20)	Remaining in Monkey liver microsomes (Sup Fig.6d) ([4]; time 30)	Remaining in Monkey liver microsomes (Sup Fig.6d) ([4]; time 60)	Remaining in Human liver microsomes (Sup Fig.6e) ([5]; time 0)	Remaining in Human liver microsomes (Sup Fig.6e) ([5]; time 5)	further results
Cc1nnn(C)c1-c1cnc2c3c4cnn(C)c4ccc3n([C@H](c3ccccc3)C3CCOCC3)c2c1 [compound 870]	–	–	–	–	–	–	–	–	–	–	–	–	–	–	–	–	–	–	–	–	Tumor volume (B16F10 mouse melanoma; 1mg/kg, day 0): 0; Tumor volume (B16F10 mouse melanoma; 1mg/kg, day 3): 56 and 75 and 36 and 4 and 137; Tumor volume (B16F10 mouse melanoma; 1mg/kg, day 7): 88 and 81 and 51 and 56 and 405; Tumor volume (B16F10 mouse melanoma; 1mg/kg, day 11): 198 and 63 and 191 and 162 and 405; Tumor volume (B16F10 mouse melanoma; 2mg/kg, day 0): 0; Tumor volume (B16F10 mouse melanoma; 2mg/kg, day 3): 14 and 36 and 172 and 3.5 and 2.5; Tumor volume (B16F10 mouse melanoma; 2mg/kg, day 7): 40 and 75 and 288 and 2.1 and 2.5; Tumor volume (B16F10 mouse melanoma; 2mg/kg, day 11): 0 and 237 and 500 and 2.5 and 1.6
O=C(O)Cc1ccccc1Nc1c(Cl)cccc1Cl [Diclofenac]	100	75.339	59.077	35.911	22.814	4.586	100	94.367	98.224	89.21	87.634	78.588	100	88.217	88.366	94.477	85.252	84.048	100	68.568	Remaining in mouse liver microsomes (Sup Fig.6a) ([1]; time 0): 100; Remaining in mouse liver microsomes (Sup Fig.6a) ([1]; time 5): 92.277; Remaining in mouse liver microsomes (Sup Fig.6a) ([1]; time 10): 89.557; Remaining in mouse liver microsomes (Sup Fig.6a) ([1]; time 20): 85.421; Remaining in mouse liver microsomes (Sup Fig.6a) ([1]; time 30): 78.177; Remaining in mouse liver microsomes (Sup Fig.6a) ([1]; time 60): 51.477; Remaining in Human liver microsomes (Sup Fig.6e) ([5]; time 10): 50.449; Remaining in Human liver microsomes (Sup Fig.6e) ([5]; time 20): 28.02; Remaining in Human liver microsomes (Sup Fig.6e) ([5]; time 30): 16.826; Remaining in Human liver microsomes (Sup Fig.6e) ([5]; time 60): 2.933
C=CC(=O)N1CCC[C@@H](n2nc(-c3ccc(Oc4ccccc4)cc3)c3c(N)ncnc32)C1 [Ibrutinib, reference compound]	–	–	–	–	–	–	–	–	–	–	–	–	–	–	–	–	–	–	–	–	Tumor volume ([6]; day 0): 154.352 mm^3 and 126.234 mm^3 and 92.4707 mm^3 and 208.237 mm^3 and 189.187 mm^3 and 112.682 mm^3; Tumor volume ([6]; day 3): 237.85 mm^3 and 276.464 mm^3 and 91.3933 mm^3 and 282.765 mm^3 and 163.343 mm^3 and 107.8 mm^3; Tumor volume ([6]; day 7): 352.832 mm^3 and 423.619 mm^3 and 205.187 mm^3 and 365.185 mm^3 and 345.367 mm^3 and 135.53 mm^3; Tumor volume ([6]; day 10): 473.704 mm^3 and 751.605 mm^3 and 389.433 mm^3 and 510.345 mm^3 and 486.864 mm^3 and 230.549 mm^3; Tumor volume ([6]; day 14): 835.097 mm^3 and 1026.1 mm^3 and 435.155 mm^3 and 707.68 mm^3 and 720.134 mm^3 and 302.373 mm^3; Tumor volume ([6]; day 17): 1017.47 mm^3 and 1815.12 mm^3 and 476.012 mm^3 and 822.388 mm^3 and 594.62 mm^3 and 293.12 mm^3; Tumor volume ([6]; day 21): 1538.44 mm^3 and 2230.02 mm^3 and 727.616 mm^3 and 1254.35 mm^3 and 985.284 mm^3 and 887.285 mm^3
C[C@]12CC[C@H]3[C@@H](CCC4=CC(=O)CC[C@@]43C)[C@@H]1CC[C@@H]2O [Testosterone]	100	0.549	0	0	0	0	100	51.913	27.194	14.015	6.615	0	100	72.293	57.852	51.22	37.184	14.336	100	82.349	Remaining in Human liver microsomes (Sup Fig.6e) ([5]; time 10): 75.006; Remaining in Human liver microsomes (Sup Fig.6e) ([5]; time 20): 64.528; Remaining in Human liver microsomes (Sup Fig.6e) ([5]; time 30): 50.522; Remaining in Human liver microsomes (Sup Fig.6e) ([5]; time 60): 21.403
